Experiments:
IL-13 = assay: RWE-induced expression of IL-13 in mouse lung (quantitative RT-PCR); format: in vivo; settings: RWE-sensitized and challenged mice, fidarestat 7 mg/kg body wt/day in drinking water, lungs 16 h after challenge
Experimental: FIG. 8. AR inhibition prevents RWE-induced expression of IL-13 in mouse lung. The mice were sensitized and challenged with PBS or RWE, without or with AR inhibitor and 16 h later lungs were harvested and total RNA was isolated (n=4). One microgram of total RNA from each sample was transcribed into first-strand cDNA and quantitative RT-PCR was conducted using IL-13 specific forward and reverse primers. The levels of RNA for the target sequences were determined by melting curve analysis. The values presented here are fold-change over the control. (**p<0.001). RWE, ragweed pollen extract; ARI, aldose reductase inhibitor. […]
The mice lungs were harvested 16 h after RWE-challenge and total RNA was isolated. From each sample, one microgram of total RNA was transcribed into first-strand cDNA and quantitative RT-PCR was conducted using IL-13 specific forward and reverse primers 5′[…] […] Data were collected and analyzed by ABI 7000 System equipment and software (Applied Biosystems, Foster City, Calif.). […] Values of expression in fold increase (ratio of control) were calculated using the formula for relative expression by the method of Delta Delta CT (ΔΔCT): F=2^−^ΔΔ^C, F=fold change (ratio of control), −ΔΔCT=(CT Target−CTHKG)^Timex−(CT Target-CT HKG)^Time 0. […]

Muc5B = assay: Western blot of Muc5B in IL-13-treated SAEC monolayer; format: cell-based, human; settings: IL-13 48 h, immunoblotting
Experimental: FIGS. 6A-6B. AR inhibition prevents IL-13-induced expression of Mucin and transcription factor SPDEF in airway epithelial cell monolayer. (A) The airway epithelial cell monolayer at ALI was serum starved without or with fidarestat and incubated with IL-13 for 18 h. Total RNA was isolated and subsequently RT-PCR was performed to assess the expression of Muc5AC and SPDEF. The bar diagrams show densitometric analysis of the corresponding blots (n=4). *p<0.001 vs Control; **p<0.001 vs IL-13; (B) The monolayer of ciliated airway cells at ALI was treated with AR inhibitor for 24 h and subsequently incubated with IL-13 for 24 or 48 h. At the end of incubation, cell lysate was prepared and subjected to western blotting using antibodies against Muc5AC, Muc5B, and SPDEF. The membranes were stripped and re-probed with antibodies against GAPDH to show the equal loading of protein. A representative blot is shown (n=4). *p<0.0001 vs Control; **p<0.001 vs IL-13. […] Protein levels were determined using Bradford reagent (Biorad, Hercules, Calif.). […] The blots were then washed, exposed to HRP-conjugated secondary antibodies (1:5,000 dilution) for 1 h, and the antigen-antibody complex was detected by enhanced chemiluminescence (Amersham Pharmacia Biotech, Piscataway, N.J., USA). […]

In the case of NC(=O)[C@@H]1C[C@]2(NC(=O)NC2=O)c2cc(F)ccc2O1 [fidarestat, (2S,4S)-2-aminoformyl-6-fluoro-spiro[chroman-4,4′-imidazolidine]-2′,5′-dione], the “RWE-induced increase of IL-13 expression in lung” value (IL-13) is reported as “prevented this increase” and the “prevention of IL-13-induced increase in Muc5B protein” value (Muc5B) is reported as about 50%.

From patent US8785483B2, “Methods for treating COPD” (The Board of Regents of the University of Texas System, priority 2010, dated 2014)
